Test results published in patent US10828269B2, “Reducing muscle atrophy by administering astaxanthin” (FUJI CHEMICAL INDUSTRIES CO., LTD., priority 2004, dated 2020).

What was measured:
[1] = tested on: Type II diabetic female db/db mice; assay: Onset of diabetic complication in db/db mice (urine albumin, urine 8-OHdG, blood glucose, kidney histopathology); type: in vivo, mouse
Method: (§1) Type II diabetic female db/db mice and non-diabetic db/m were purchased from Clea Japan, Inc. Mice were bred under the conditions with a 12 hours light-dark cycle at a temperature of 21° C. to 25° C. For acclimation, mice were fed CE-2 (Clea Japan, Inc.) with free access to water for one week. The mice were divided into three groups each consisting of 8 mice (non-diabetic db/m, diabetic db/db, and astaxanthin-administered db/db) and each group was bred with feed ad libitum. Mice in astaxanthin-administered group were fed a diet in which 0.02% astaxanthin in terms of free astaxanthin was compounded with CE-2. Each group was bred for 12 weeks, and body weight, blood glucose levels, 8-OHdG levels in urine, albumin levels in urine, and kidney histopathology, were measured. Astaxanthin used here was AstaReal (registered trademark, Fuji Chemical Industry Co., Ltd.) 50F, which is oil composed of astaxanthin fatty acid ester and triglycerides and contains 5% astaxanthin in terms of free astaxanthin.
FIG. 1 is a photomicrograph of glomerulus.

catenin beta = assay: GeneChip gene expression in renal glomerulus; type: in vivo, mouse; conditions: probe 1420811_a_at, 0.02% in diet, 12 weeks
Method: as §1
(§2) After the period of test breeding, kidney was removed and frozen at −80° C. Using an LM200 system (Olympus Corporation), the renal glomerulus was cut from kidney of mice while keeping low temperature. tRNA of renal glomerulus was extracted using tRNA extraction regent “Isogen” (produced by Nippon Gene Co., Ltd.), and then preparation of cRNA and hybridization were performed according to the Affymetrix GeneChip Eukaryotic Small Sample Target Labeling Assay Ver. II.
(§3) (1) Synthesis of first strand cDNA: 1 μL of total RNA solution and 1 of 5 μM T7-Oligo(dT) primer were mixed, heated at 70° C. for 6 minutes, and then cooled at 4° C. for 2 minutes. 3 μL of RT_Premix_1 (1.5 μL DEPC-treated water, 4 μL 5× First strand Buffer, 2 μL DTT (0.1 M), 1.5 μL dNTP Mix (10 mM), 1 μL RNase inhibitor (40 U/μL), and 2 μL Super-Script II (200 U/μL)) was added and reverse transcribed at 42° C. for 1 hour. The sample was heated at 70° C. for 10 minutes to inactivate Super Script II, and then cooled to 4° C. (2) Synthesis of second strand cDNA: 32.5 μl of SS_Premix_1 (91 μL DEPC-treated water, 30 μL 5× Second Strand Buffer, 3 μL dNTP (10 mM), 1 μL E. coli DNA ligase (10 U/μL); 4 μL E. coli DNA polymerase (10 U/μL), and 1 μL RNase H (2 U/μL)) was added to the first strand cDNA solution and allowed to react for 2 hours at 16° C. (3) To the resulting cDNA, was added 1 μL T4 DNA polymerase (5 U/μl) and allowed to react for 10 minutes at 16° C., and purified by ethanol precipitation. (4) In vitro transcription: To the dried double-stranded cDNA pellet, was added 10 μL of reagents (4 μL DEPC-treated water, 4 μL premixed NTPs, 1 μL 10× reaction buffer, and 1 μL 10× enzyme mix), and allowed to react at 37° C. in a water bath for 6 hours. (5) First cycle cRNA was purified using the RNeasy Mini Kit in accordance with the protocol in the handbook (QIAGEN). (6) Subsequently, for the amplification and labeling, the cRNA sample was mixed with random primers (0.2 μg/μL), treated at 70° C. for 10 minutes, cooled on ice for 2 minutes, 5 μL of RT_Premix_2 (5× First Strand Buffer, DTT (0.1 M), dNTP mix (10 mM), RNase inhibitor (40 U/μL), and SuperScript II (200 U/μL) was added, and allowed to react at 42° C. for 1 hour. (7) Next, Second Sstrand cDNA synthesis was carried out by adding 5 μM T7-Oligo(dT) promoter treating at 70° C. for 6 minutes, cooling at 4° C., and adding 62 μL of SS_Premix_2 (43 μL it DEPC-treated water, 15 μL 5× Second Strand Buffer, 1.5 μL dNTP mix (10 mM), and 2 μL E. coli DNA polymerase (10 U/μL)). (8) To the resulting cDNA, was treated added 1 μL of T4 DNA polymerase (5 U/μL), allowed to react at 16° C. for 10 minutes, and purified by ethanol precipitation. […]

fibrosin 1 = assay: GeneChip gene expression in renal glomerulus; type: in vivo, mouse; conditions: probe 1433816_at, 0.02% in diet, 12 weeks
Method: as §1, §2, §3

[2] = tested on: isocitrate dehydrogenase 1 (NADP+), soluble; assay: GeneChip gene expression in renal glomerulus; type: in vivo, mouse; conditions: probe 1419821_s_at, 0.02% in diet, 12 weeks
Method: as §1, §2, §3

septin 7 = assay: GeneChip gene expression in renal glomerulus; type: in vivo, mouse; conditions: probe 1454610_at, 0.02% in diet, 12 weeks
Method: as §1, §2, §3

[3] = tested on: gastrocnemius of Wistar male rats; assay: Muscle atrophy test (sciatic nerve of left leg cut); type: in vivo, rat
Method: 9-week-old Wistar male rats were bred each being fed a normal diet for breeding and water ad libitum under the conditions with a 12 hours light-dark cycle at a temperature of 21° C. to 25° C. and were accustomed to the environment in advance. The rats were divided into two groups of 10 rats per group, and each group was bred with a normal diet (control group) or a diet to which astaxanthin was added (Ax group) fed ad libitum. The diet to which astaxanthin was added was prepared by mixing free astaxanthin at 0.02%. At one week after the start of ingestion of astaxanthin-added diet, the sciatic nerve of the left leg was cut and muscle of the left lower extremity was inactivated. After breeding for further two weeks, rats were killed, triceps surae (soleus muscle, gastrocnemius, and plantaris) were extracted from left leg (limb in which nerves were removed) and right leg (control limb), respectively, and the wet weight of the gastrocnemius was measured. The atrophy rate was calculated using the difference of the wet weight of the gastrocnemius of left lower limb to the wet weight of the gastrocnemius of right lower limb with respect to each group Table 7. […]

[4] = relative to β-carotene; cited from earlier work
diabetic db/db mice = conditions: Naito Y. et al, Redox Rep 2002; cited from earlier work

With `CC1=C(/C=C/C(C)=C/C=C/C(C)=C/C=C/C=C(C)/C=C/C=C(C)/C=C/C2=C(C)C(=O)C(O)CC2(C)C)C(C)(C)CC(O)C1=O` (stereo not drawn) [astaxanthin, 3,3′-dihydroxy-β,β-carotene-4,4′-dione] the “Albumin level in urine” value ([1]; at the end (12 weeks), db/db mice, diet with 0.02% astaxanthin (AstaReal 50F)) was 77.8 ± 44.6 mg/dL, the “Albumin level in urine” value ([1]; at the start, astaxanthin-administered db/db mice) was 46.2 ± 1.5 mg/dL and the blood glucose levels ([1]; diabetic db/db mice, diet with 0.02% astaxanthin, 12 weeks) was “reduces blood glucose levels”. The “enlargement of glomerular mesangium (microscope)” value ([1]; kidney of db/db(Ax) vs db/db mice) was “apparently moderated”, the “gene expression relative ratio db/db(Ax):db/db” value (catenin beta) was 0.38 and the “gene expression relative ratio db/db(Ax):db/m” value (catenin beta) was 12.13. The “gene expression relative ratio db/db(Ax):db/db” value (fibrosin 1) was 0.31, the “gene expression relative ratio db/db(Ax):db/m” value (fibrosin 1) was 8 and the “gene expression relative ratio db/db(Ax):db/db” value [2] was 0.33. For the same compound, the “gene expression relative ratio db/db(Ax):db/m” value [2] was 6.96, the “gene expression relative ratio db/db(Ax):db/db” value (septin 7) was 0.76 and the “gene expression relative ratio db/db(Ax):db/m” value (septin 7) was 36.76. For the same compound, the “Gastrocnemius Atrophy rate” value ([3]; difference of wet weight of left to right gastrocnemius, Ax group) was 37.7%, the “atrophy rate compared with the control group” value ([3]; risk rate 5% or less) was “smaller value of atrophy rate” and the “antioxidant effect, times as strong as β-carotene” value [4] was “about 40 times”. For the same compound, the blood glucose level (diabetic db/db mice) was “reduces blood glucose level” and the diabetic nephropathy (diabetic db/db mice) was “has an effect on the improvement of diabetic nephropathy”.
